Data from ChEMBL document CHEMBL4130444, “1,4-Naphthoquinones as inhibitors of Itch, a HECT domain-E3 ligase, and tumor growth suppressors in multiple myeloma” (Eur J Med Chem, 2017).

Experiments:
HCT-116 = test: Antiproliferative activity against human HCT116 cells incubated for 48 hrs by SRB assay; format: functional; details: HCT-116, 48 h
MDA-MB-231 = test: Antiproliferative activity against human MDA-MB-231 cells incubated for 48 hrs by SRB assay; format: functional; details: MDA-MB-231, 48 h

## O=C(Nc1ccc2[nH]cnc2c1)c1ccc(CNC2=C(Cl)C(=O)c3ccccc3C2=O)cc1
HCT-116
  GI50: > 10 µM
MDA-MB-231
  GI50: > 10 µM

## Nc1ccn(C(=O)c2ccc(CNC3=C(Cl)C(=O)c4ccccc4C3=O)cc2)n1
HCT-116
  GI50: > 10 µM
MDA-MB-231
  GI50: > 10 µM

## O=C(Nc1cnccn1)c1ccc(CNC2=C(Cl)C(=O)c3ccccc3C2=O)cc1
HCT-116
  GI50: 5.5 µM
MDA-MB-231
  GI50: 9.2 µM

## O=C(Nc1ccc(F)cc1)c1ccc(CNC2=C(Cl)C(=O)c3ccccc3C2=O)cc1
HCT-116
  GI50: > 10 µM
MDA-MB-231
  GI50: > 10 µM
